# Test results: patent US20210137853A1, “METHODS OF TREATING EPILEPTIC PATIENTS WITH FENFLURAMINE” (Zogenix International Limited, priority 2019, published 2021)
# Where “and” joins values, the source holds several entries; their conditions need not be identical. Equal values may be shown once. Read-outs that look alike come from different tables or passages of the source.
# What was measured:
# Dravet syndrome seizures = settings: supplemented with clobazam and valproate; cited from earlier work
# 5-HT1A = biological target: T1, 5-HT1A (Homo sapiens, UniProt P08908); settings: cited from earlier work; for Ki: values from ChemBL, PDSP or DrugBank.ca and literature
# T1 sequence (P08908 1-422): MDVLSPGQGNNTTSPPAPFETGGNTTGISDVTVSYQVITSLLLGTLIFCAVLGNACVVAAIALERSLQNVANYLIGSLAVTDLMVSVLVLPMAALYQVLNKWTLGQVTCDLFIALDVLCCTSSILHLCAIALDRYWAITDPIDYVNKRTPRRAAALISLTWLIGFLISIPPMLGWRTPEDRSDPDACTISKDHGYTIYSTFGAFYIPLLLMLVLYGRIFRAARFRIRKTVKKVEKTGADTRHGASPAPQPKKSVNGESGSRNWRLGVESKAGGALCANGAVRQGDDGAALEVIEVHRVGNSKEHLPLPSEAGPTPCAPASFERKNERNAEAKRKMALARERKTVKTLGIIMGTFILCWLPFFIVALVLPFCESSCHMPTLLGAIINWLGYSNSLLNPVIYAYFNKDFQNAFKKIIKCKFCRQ
# 5-HT1D = 5-HT1D (Homo sapiens, UniProt P28221); settings: Table 4, cited from earlier work; for Ki: values from ChemBL, PDSP or DrugBank.ca and literature
# Sequence of 5-HT1D (P28221 whole entry, species assumed): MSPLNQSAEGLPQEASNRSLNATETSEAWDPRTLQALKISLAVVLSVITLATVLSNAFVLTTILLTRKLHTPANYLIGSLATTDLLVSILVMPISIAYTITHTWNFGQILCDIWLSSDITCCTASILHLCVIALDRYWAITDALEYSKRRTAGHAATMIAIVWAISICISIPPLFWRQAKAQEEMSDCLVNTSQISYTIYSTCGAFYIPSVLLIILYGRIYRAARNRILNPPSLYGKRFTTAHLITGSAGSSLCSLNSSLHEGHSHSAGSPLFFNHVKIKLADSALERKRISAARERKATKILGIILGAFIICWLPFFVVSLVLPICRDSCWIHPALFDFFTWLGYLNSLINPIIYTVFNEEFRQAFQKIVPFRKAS
# 5-HT2C = biological target: T2, 5-HT2C (Homo sapiens, UniProt P28335); settings: Table 4; values from ChemBL, PDSP or DrugBank.ca and literature; cited from earlier work
# T2 sequence (P28335 33-458): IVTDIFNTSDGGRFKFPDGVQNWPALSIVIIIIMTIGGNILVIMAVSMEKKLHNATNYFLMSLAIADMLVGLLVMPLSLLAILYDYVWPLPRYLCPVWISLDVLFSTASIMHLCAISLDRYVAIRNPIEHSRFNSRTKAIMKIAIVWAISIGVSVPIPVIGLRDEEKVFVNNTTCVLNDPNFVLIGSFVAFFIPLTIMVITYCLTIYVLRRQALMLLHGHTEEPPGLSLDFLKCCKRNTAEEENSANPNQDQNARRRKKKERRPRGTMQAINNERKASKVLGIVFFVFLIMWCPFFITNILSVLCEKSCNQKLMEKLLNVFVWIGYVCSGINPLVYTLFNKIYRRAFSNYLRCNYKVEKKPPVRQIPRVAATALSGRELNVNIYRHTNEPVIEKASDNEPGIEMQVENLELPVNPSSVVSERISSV
# 5-HT1B = 5-HT1B (Homo sapiens, UniProt P28222); settings: cited from earlier work
# Sequence of 5-HT1B (P28222 whole entry, species assumed): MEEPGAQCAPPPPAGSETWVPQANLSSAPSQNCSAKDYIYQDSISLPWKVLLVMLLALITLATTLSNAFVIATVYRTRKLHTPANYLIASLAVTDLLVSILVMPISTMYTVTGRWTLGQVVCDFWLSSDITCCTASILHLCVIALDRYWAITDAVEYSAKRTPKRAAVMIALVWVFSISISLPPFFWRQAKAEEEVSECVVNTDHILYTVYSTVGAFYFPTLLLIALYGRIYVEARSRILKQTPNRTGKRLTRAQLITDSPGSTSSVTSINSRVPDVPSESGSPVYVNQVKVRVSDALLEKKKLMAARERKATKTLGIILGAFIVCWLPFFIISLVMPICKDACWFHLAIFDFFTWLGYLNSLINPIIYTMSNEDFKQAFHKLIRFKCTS
# [1] = tested on: Maximal Electroshock (MES) model of acute generalized tonic clonic seizures; experiment: MES test of fenfluramine in combination with serotonergic inhibitors; settings: for Activity in MES model in presence of FFA (animals protected): Table 7, compound combined with 3 mg/kg FFA; for Impaired (I/F) / Protected (N/F): compound IP at Table 5 dose and time of test, with fenfluramine 3 mg/kg IP 4 hr pre-test; for effect on FFA anti-seizure activity in MES model (in words): summary of Table 7
# Method: Specifically, the present example describes characterization of anticonvulsant effects of fenfluramine when administered in combination with various other compounds using a murine model of seizures: a Maximal Electroshock (IVIES) model. Maximal Electroshock (IVIES) is a model of acute generalized tonic clonic seizures. Induction of seizures is caused by 60 Hz 0.2 second alternating 50 mA current in the mouse. Tonic hindlimb extensions are measured to assess seizures or seizure protection.
# So, for example, a compound with a 1 hour time of peak activity would be administered 3 hours after FEN administration in the study design.
# [2] = tested on: Maximal Electroshock (MES) model of acute generalized tonic clonic seizures; experiment: MES test of fenfluramine (FFA) alone, dose and time range; format: in vivo, mouse
# From the text: Results are depicted in Table 6 below.
# MES test = settings: cited from earlier work
# 5-HT2A = 5-HT2A (Homo sapiens, UniProt P28223); settings: Table 4; values from ChemBL, PDSP or DrugBank.ca and literature; cited from earlier work
# Sequence of 5-HT2A (P28223 whole entry): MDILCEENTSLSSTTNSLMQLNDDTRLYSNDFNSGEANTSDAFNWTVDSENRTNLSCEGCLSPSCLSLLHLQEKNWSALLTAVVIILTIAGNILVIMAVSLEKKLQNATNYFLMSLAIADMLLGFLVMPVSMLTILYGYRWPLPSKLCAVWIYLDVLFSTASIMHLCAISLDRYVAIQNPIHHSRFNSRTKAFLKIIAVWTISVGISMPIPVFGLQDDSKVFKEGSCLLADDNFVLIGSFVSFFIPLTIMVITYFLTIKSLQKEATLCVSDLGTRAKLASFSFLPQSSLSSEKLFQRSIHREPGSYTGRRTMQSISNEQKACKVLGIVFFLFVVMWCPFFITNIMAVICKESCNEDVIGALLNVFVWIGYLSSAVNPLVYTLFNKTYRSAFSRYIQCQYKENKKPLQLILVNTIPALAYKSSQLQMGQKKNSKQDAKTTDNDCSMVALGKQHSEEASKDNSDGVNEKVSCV
# [3] = fenfluramine 3 mg/kg IP plus vehicle (VEH) only
# [4] = 50% inhibition of specific binding, Moser et al. 1990
Structure (SMILES),Ki (5-HT1D) [nM],Activity in MES model in presence of FFA (animals protected) [1],Impaired (I/F) [1],Protected (N/F) [1],effect on FFA anti-seizure activity in MES model (in words) [1],also measured
"CC(C)(C)C(O)/C=C/c1ccc2c(c1)OCO2 (stereo not drawn) [Stiripentol, stiripentol]",,,,,,reduction of overall seizure rate (Dravet syndrome seizures): 70%
CN1CCN(C2=Nc3ccccc3Oc3ccc(Cl)cc32)CC1 [Loxapine],3470,,,,,"Ki (5-HT1A; Table 4): 2460 nM; Ki (5-HT2C): 9.5 to 21 nM; Ki (5-HT1B; Table 4, values from ChemBL, PDSP or DrugBank.ca and literature): 388 nM"
CN(C)CCCN1c2ccccc2CCc2ccc(Cl)cc21 [clomipramine],,FFA protected = 7/8,0/8,7/8,do not block FFA anti-seizure activity,Ki (5-HT2C): 64.6 nM
OC(CN1CCN(c2cccc(Cl)c2)CC1)C(c1ccccc1)c1ccccc1 (stereo not drawn) [BRL 15572],,FFA reduced protection = 1/8,0/8,1/8,appear to block FFA anti-seizure activity,pKi 5-HT1A (5-HT1A; Table 4): 7.7; pKi 5-HT1D (5-HT1D): 7.9
NC(=O)N1c2ccccc2C=Cc2ccccc21 [Carbamazepine],,Protected = 8/8,0/8,8/8,no interference was observed,
CC(C)NCC(O)COc1cccc2[nH]ccc12 (stereo not drawn) [Pindolol],4900,FFA protected = 5/8,,5/8,do not block FFA anti-seizure activity,
CN1CCN2c3ccccc3Cc3ccccc3C2C1 (stereo not drawn) [mianserin],,FFA reduced protection = 2/8,0/8,2/8,,
"CCNC(C)Cc1cccc(C(F)(F)F)c1 (racemic) [Fenfluramine, (RS)—N-ethyl-1-[3-(trifluoromethyl)phenyl]propan-2-amine]",,,,,,"Activity in MES model: FFA protected ([2]; 2.5 mg/kg IP, 4 hr pre-MES, SOW #1 MES Quantification): FFA protected = 3/4; animals protected in the MES assay ([2]; 3 mg/kg FFA): 50-60%; Activity in MES model: FFA protected ([2]; 3 mg/kg IP, 2 hr pre-MES, SOW #1 MES Identification): FFA protected = 3/4; Activity in MES model: FFA protected ([2]; 3 mg/kg, 4 hr pre-MES, SOW #2 (-) control): FFA protected = 4/8; Activity in MES model: FFA protected ([2]; 3 mg/kg, 4 hr pre-MES, SOW #3 (-) control): FFA protected = 5/8; Activity in MES model: FFA protected ([2]; 5 mg/kg IP, 4 hr pre-MES, SOW #1 MES Quantification): FFA protected = 6/8; protection in the MES model ([2]; 10 mg/kg FFA): 100%; Activity in MES model: FFA protected ([2]; 10 mg/kg IP, 2 hr pre-MES, SOW #1 MES Time Course): FFA protected = 3/4; Activity in MES model: FFA protected ([2]; 10 mg/kg IP, 4 hr pre-MES, SOW #1 MES Quantification): FFA protected = 8/8; Activity in MES model: FFA protected ([2]; 10 mg/kg IP, 4 hr pre-MES, SOW #1 MES Time Course): FFA protected = 4/4; Impaired (I/F) [2, 3]: 0/8; Protected (N/F) [2, 3]: 4/8 and 5/8"
CN(C)CCC=C1c2ccccc2COc2ccccc21 [doxepin],,FFA protected = 7/8,,7/8,do not block FFA anti-seizure activity,"ED50 in MES test (MES test; 0.25 hr post-administration): 8.2 mg/kg; ED50 in MES test (MES test; IP, at TPE of 5 min): 6.6 mg"
O=C1CC2(CCCC2)CC(=O)N1CCNCC1COc2ccccc2O1 (stereo not drawn) [Binospirone],,FFA protected = 3/8,0/8,3/8,,pIC50 5-HT1A (5-HT1A; [4]): 8.6; pIC50 5-HT1B (5-HT1B; [4]): 4.5
"Clc1ccc2c(c1)N=C(N1CCNCC1)c1ccccc1N2 [N-desmethyl-clozapine, N-desmethylclozapine]",130,FFA reduced protection = 1/8,0/8,1/8,appear to block FFA anti-seizure activity,Ki (5-HT1A; Table 4): 160 nM; Ki (5-HT2C): 4.8 nM
CN(C)CCCN1c2ccccc2Sc2ccc(Cl)cc21 [Chlorpromazine],452,FFA protected = 5/8,,5/8,do not block FFA anti-seizure activity,
OCCN1CCN(CCCN2c3ccccc3Sc3ccc(Cl)cc32)CC1 [perphenazine],,FFA reduced protection = 2/8,,2/8,,
CN1CC2c3ccccc3Oc3ccc(Cl)cc3C2C1 (stereo not drawn) [asenapine],10.2,FFA reduced protection = 2/8,0/8,2/8,,Ki (5-HT1A; Table 4): 15 nM; Ki (5-HT2A): 0.77 nM; Ki (5-HT2C): 0.27 nM
CN1CCN(C2=Nc3cc(Cl)ccc3Nc3ccccc32)CC1 [Clozapine],,FFA reduced protection = 1/8,,,appear to block FFA anti-seizure activity,
O=c1[nH]c2ccccc2n1C1CCN(CCCC(c2ccc(F)cc2)c2ccc(F)cc2)CC1 [Pimozide],3100,FFA protected = 3/8,,3/8,do not block FFA anti-seizure activity,
